Test results published in US8637038B2, “Methods for inhibiting allograft rejection” (Rigel Pharmaceuticals, Inc., priority 2011, dated 2014).
“And” between values parts separate entries of the source, which are not always exact repeats. Equal values may be shown once.

Key:
[1] = tested on: BN-to-Lew heterotopic heart transplantations; test: Graft survival study after 10-day treatment, with combination index; format: in vivo, rat; conditions: no medication 7±0 days
Description: Male Brown Norway (BN) and Lewis (Lew) rats weighing 350 g were purchased from Harlan (Indianapolis, Ind.) and were housed under conventional conditions. All animals were fed standard rat chow and water ad libitum and received humane care in compliance with the Principles of Laboratory Animal Care formulated by the National Society for Medical Research and the Guide for the care and Use of Laboratory Animals published by the National Institutes of Health (National Institutes of Health publication No. 85-23, revised 1985). Allogeneic (BN-to-Lew) and syngeneic (Lew-to-Lew) heterotopic heart transplantations were performed as described previously (Ono et al., J. Thorac. Cardiovasc. Surg. 57:225-229, 1969). In brief, rats were anaesthetized using 2% isoflurane. The donor received an intravenous bolus of 500 I.U. heparin. Cardiac arrest was achieved using 20 ml Bretschneider solution (Custodiol, Dr. F. Koehler Chemie, Bensheim, Germany). […] Heart-beating score was assessed directly after transplantation for each animal from score 0 (no palpable contraction) to 4 (strong and regular contraction). Only animals with beating scores of 4 were included into the study.
Compound I and Compound III were provided by Rigel (South San Francisco, Calif.) and Tacrolimus was provided by Astellas (Munich, Germany). All drugs were administrated orally each in two different concentrations: Compound I LD (15 mg/kg BID; n=6) and HD (60 mg/kg BID; n=6); Compound III LD (5 mg/kg BID; n=6) and HD (20 mg/kg BID; n=6); Tac LD (1 mg/kg QD; n=6) and HD (4 mg/kg QD; n=6). Administration of all drugs was performed every day at the same time points. Tacrolimus was applied only once a day (QD) every 24 hours. During administration of Compound I (BID) and Compound III (BID) a 12 hour pause was kept in between each drug application.
BN-to-Lew heterotopic heart transplantations were performed. Recipient animals were treated for 10 days according to Table 1 (10 day survival study group) and graft survival was monitored by daily palpation of the beating donor heart through the abdominal wall. Scoring was assessed according to heart-beating score of 0 to 4. The time of rejection was defined as the last day of palpable cardiac contractions and graft rejection was confirmed by laparotomy.
The median-effect principle of Chou (in Synergism and Antagonism in Chemotherapy, Chou and Rideout, eds, pp. 61-102, Academic Press, 1991) is based on the premise that the effect of each agent is related to its dose and, therefore, can be calculated using the following equation: (fa/fu)=(D/Dm)m, where fa and fu represent the fractions of the system that are affected (% inhibition or rather days of survival beyond controls) and unaffected (1−fa), respectively, by the drug at dose D. Full protection (fa=1) is defined as at least a 28-day survival of allografts. Dm is the dose required for 50% inhibition (ED50), the median effect (m) is a coefficient that describes the sigmoidicy of the dose-effect curve. The interaction between two drugs is assessed by the combination index (CI) equation for the doses to achieve x % inhibition:
[formula] for the mutually nonexclusive case, where each drug has a different mode of action. A computer software program was used to determine the dose-effect parameters (Dm, m, and r), and the CI values (CalcuSyn, Biosoft, Cambridge, United Kingdom).
Graft survival was monitored by daily palpation of the beating donor heart through the abdominal wall and treatment of animals was stopped after 10 days.

[2] = tested on: Lew recipients of heterotopic BN heart transplants; test: Five-day heart allograft study: H+E histology, ISHLT rejection classification; format: in vivo, rat; conditions: HD (Compound I 60 mg/kg BID, Compound III 20 mg/kg BID, Tac 4 mg/kg QD); five days after transplantation
Description: Male Brown Norway (BN) and Lewis (Lew) rats weighing 350 g were purchased from Harlan (Indianapolis, Ind.) and were housed under conventional conditions. All animals were fed standard rat chow and water ad libitum and received humane care in compliance with the Principles of Laboratory Animal Care formulated by the National Society for Medical Research and the Guide for the care and Use of Laboratory Animals published by the National Institutes of Health (National Institutes of Health publication No. 85-23, revised 1985). Allogeneic (BN-to-Lew) and syngeneic (Lew-to-Lew) heterotopic heart transplantations were performed as described previously (Ono et al., J. Thorac. Cardiovasc. Surg. 57:225-229, 1969). In brief, rats were anaesthetized using 2% isoflurane. The donor received an intravenous bolus of 500 I.U. heparin. Cardiac arrest was achieved using 20 ml Bretschneider solution (Custodiol, Dr. F. Koehler Chemie, Bensheim, Germany). […] Heart-beating score was assessed directly after transplantation for each animal from score 0 (no palpable contraction) to 4 (strong and regular contraction). Only animals with beating scores of 4 were included into the study. Compound I and Compound III were provided by Rigel (South San Francisco, Calif.) and Tacrolimus was provided by Astellas (Munich, Germany). All drugs were administrated orally each in two different concentrations: Compound I LD (15 mg/kg BID; n=6) and HD (60 mg/kg BID; n=6); […] Administration of all drugs was performed every day at the same time points. Tacrolimus was applied only once a day (QD) every 24 hours. During administration of Compound I (BID) and Compound III (BID) a 12 hour pause was kept in between each drug application. Lew recipients of heterotopic BN heart transplants were randomly assigned to their group. […] An untreated syngeneic transplant group Lew-Lew was generated as control. Grafts were recovered five days after transplantation and fixed in 4% paraformaldehyde (Science Services, Munich, Germany), dehydrated and embedded in paraffin. […] Waldeck, Carl Roth GmbH, Munster, Germany) and examined by standard light microscopy. The extent of acute cardiac graft rejection in H+E staining was examined by an experienced pathologist according to the 2004 ISHLT working formulation (Stewart et al., J. Heart Lung Transplant. 24:1710-1720, 2005).

[3] = HD (Compound I 60 mg/kg BID, Compound III 20 mg/kg BID, Tac 4 mg/kg QD) for 10 days
[4] = LD (Compound I 15 mg/kg BID, Compound III 5 mg/kg BID, Tac 1 mg/kg QD) for 10 days

COc1cc(Nc2ncc(C)c(Nc3ccc4oc(=O)[nH]c4c3)n2)cc(C)c1F [Compound I, 5-(2-(4-fluoro-3-methoxy-5-methylphenylamino)-5-methylpyrimidin-4-ylamino)benzo[d]oxazol-2(3H)-one]
graft survival, mean [1, 3]: 22 ± 5 days and 22 ± 6 days | graft survival, mean [1, 4]: 15 ± 3 days | hearts with ISHLT score of 0 [2]: 17% | hearts with ISHLT score of 1 [2]: 50% | hearts with ISHLT score of 2 [2]: 17% | hearts with ISHLT score of 3 [2]: 17%

COc1cc(Nc2ncc(C)c(Nc3ccc4oc(=O)[nH]c4c3)n2)cc(C)c1C [Compound III, 5-(2-(3-methoxy-4,5-dimethylphenylamino)-5-methylpyrimidin-4-ylamino)benzol[d]oxazol-2-(3H)-one]
graft survival, mean [1, 3]: 20 ± 4 days and 20 ± 2 days | graft survival, mean [1, 4]: 13 ± 2 days | hearts with ISHLT score of 0 [2]: 33% | hearts with ISHLT score of 1 [2]: 50% | hearts with ISHLT score of 2 [2]: 17% | hearts with ISHLT score of 3 [2]: no scores of 3
